Data on three molecules can be found in EP1093379B1, “USE OF INHIBITORS OF PROTEIN KINASE C EPSILON TO TREAT PAIN” (The Regents of the University of California, priority 1998, dated 2007).

The nature of data set [1]: Rotorod analysis of motor deficits. In kind it is in vivo, rat. As to conditions: vincristine 100 µg/kg intravenously daily. The procedure:
(§1) Humans undergoing chemotherapy frequently experience hyperalgesia. Vincristine is a chemotherapeutic drug known to cause such hyperalgesia, and a rat model of vincristine-induced hyperalgesia was established as follows. Vincristine (100 µg/kg in saline; Sigma Chemical Catalog) was administered intravenously daily to each of 32 rats over a period of two weeks.
(In general: The rotarod test checks motor coordination on a turning rod.)

In data set [2] the test system is vincristine-induced hyperalgesia. In words: Vincristine-induced hyperalgesia model, mechanical stimuli (Ugo Basile analgesymeter). The class given is in vivo, rat. Particulars: vincristine 100 µg/kg intravenously daily; after the second day. The procedure: as §1
To determine whether administration of an inhibitor of PKCε would lessen vincristine-induced hyperalgesia in the rat model described above, on the 13th day of vincristine treatment, rats received no treatment (n= 16) or intradermal injections of sterile water followed by intradermal injections of either 1µg εV1-2, a PKCε inhibitory peptide (n=8; labeled "PKCεI" on Figure 12A), or 1µg S-VεV1-2, a scrambled version of the εV1-2 peptide (n=8; labeled "PCKεI SCR" on Figure 12A), 20-30 minutes before administration of a mechanical stimulus.

A further data set deals with basal paw threshold. As to conditions: similar dose of phentolamine, normal rat; earlier studies; cited from earlier work.
Data set [3] has as its system formalin-induced hyperalgesia. Particulars: similar dose of phentolamine; earlier studies; cited from earlier work.
For data set [4], the system named is PGE2-induced hyperalgesia. As to conditions: similar dose of phentolamine; earlier studies; cited from earlier work.
Another data set concerns TTX-RINa. In kind it is cell-based, rat. Particulars: for effect on epinephrine-induced potentiation of TTX-RINa: 1µM epinephrine, 2µM propranolol, 5µM phentolamine, 100µM Rp-cAMPs, 100µM BIM.
For data set [5], the system named is epinephrine-induced hyperalgesia. In words: Epinephrine-induced mechanical hyperalgesia, paw-withdrawal threshold (Ugo Basile analgesymeter). In kind it is in vivo, rat. As to conditions: intradermal, rat hindpaw; inhibitors 1 µg (WIPTIDE 100 ng) 15 minutes prior to epinephrine, DAMGO co-injected; antagonist doses not given. On the procedure: (§2) The roles of PKC, protein kinase A ("PKA") and the µ-opioid receptor in mediating epinephrine-induced hyperalgesia were assessed by measuring the effects of: Rp-adenosine 3', 5'-cyclic monophosphate ("Rp-cAMPs") and WIPTIDE, both inhibitors of PKA; SQ22536, an inhibitor of adenylyl cyclase, an enzyme activated by PKA; bisindolymaleimide ("BIM"), a nonselective inhibitor of PKC isozymes; and [D-Ala^2,N-Me-Phe^4,Gly^5-ol]-enkephalin ("DAMGO"), p-opioid receptor agonist. The dose for each inhibitor was 1µg, except for WIPTIDE, which was administered in a 100ng dose. […] A large numeric value means more hyperalgesia.

The subject of data set [6] is prolonged PGE2-induced hyperalgesia. The experiment in a line: Chronic inflammatory pain model: prolonged hyperalgesia in carrageenan-sensitized rats (Randall-Selitto paw-withdrawal test). The class given is in vivo. The text has this: In order to investigate the role, if any, of PKCε in chronic inflammatory pain, the following model system for chronic inflammatory pain was developed. Rats received intradermal hind paw injections of carrageenan, an inflammatory agent. […] This was considered an acute response to the carrageenan-induced inflammation. Although administration of Prostaglandin E2 ("PGE2"), 5-hydroxytryptamine ("5-HT," serotonin) or CGS-21680 (an adenosine A2-selective receptor agonist) normally causes untreated rats (that is, rats that have not received carrageenan injections) to experience hyperalgesia lasting up to 6 hours, the hyperalgesia experienced by carrageenan-sensitized rats following administration of any one of these substances lasted up to 24 hours.
The prolonged PGE2-induced hyperalgesia normally seen in carrageenan-sensitized rats was inhibited by administration of BIM or εV1-2.
To examine whether protein kinase C modulates the processes by which a brief inflammatory event causes prolonged hyperalgesia many days later, rats received carrageenan and 1µg BIM injections at the same time. Hyperalgesia was measured 72 hours later, when the rats were treated PGE2. […] Therefore, administration of an inhibitor of PKC either at approximately the same time as the inflammatory agent giving rise to chronic, prolonged hyperalgesia or at about the same time as the hyperalgesia-inducing stimulus can lessen such chronic hyperalgesia.

The test system of data set [7] is isoproterenol-induced hyperalgesia. In words: Isoproterenol-induced mechanical hyperalgesia, paw-withdrawal threshold. In kind it is in vivo, rat. Particulars: intradermal; BIM 1 µg, WIPTIDE 100 ng; propranolol dose not given. On the procedure: To examine the role of β-AR in epinephrine-induced hyperalgesia, propranolol, a β-AR antagonist, and isoproterenol, a selective β-AR agonist, were administered by intradermal injection.
as §2

Data set [8] has as its system PGE2-induced hyperalgesia. In words: PGE2-induced mechanical hyperalgesia, paw-withdrawal threshold. In kind it is in vivo, rat. Particulars: same dose as for epinephrine: BIM 1 µg, WIPTIDE 100 ng. The procedure: The roles of PKC, protein kinase A ("PKA") and the µ-opioid receptor in mediating epinephrine-induced hyperalgesia were assessed by measuring the effects of: Rp-adenosine 3', 5'-cyclic monophosphate ("Rp-cAMPs") and WIPTIDE, both inhibitors of PKA; SQ22536, an inhibitor of adenylyl cyclase, an enzyme activated by PKA; bisindolymaleimide ("BIM"), a nonselective inhibitor of PKC isozymes; and [D-Ala^2,N-Me-Phe^4,Gly^5-ol]-enkephalin ("DAMGO"), p-opioid receptor agonist. The dose for each inhibitor was 1µg, except for WIPTIDE, which was administered in a 100ng dose. DAMGO was co-injected with epinephrine whereas the other inhibitors were applied 15 minutes prior to epinephrine injection. […] TABLE 1: Percentage decrease in nociceptive threshold in response to epinephrine, PGE2 or isoproterenol (each 100 ng) and effects of DAMGO, SQ22536, BIM, Rp-cAMPs (all 1 µg) or WIPTIDE (0.1 µg). A large numeric value means more hyperalgesia.
For mechanical nociceptive testing, the nociceptive flexion reflex was quantified using an Ugo Basile analgesymeter that applies a constantly increasing force measured in grams (Stoelting, Chicago, IL; K. O. Aley, J. D. Levine, J. Neurosci. 17, 8018-23 (1997)). The mean basal mechanical threshold for rats used in these experiments was 105.3+/-2.8 grams. The effects of hyperalgesia-inducing agents epinephrine (100ng) and PGE2 (100ng) on mechanical nociceptive thresholds were determined by measuring paw withdrawal frequencies at 15, 20, and 25 minutes after administration of the hyperalgesic agent and then calculating the mean of these three readings.

Data set [9] concerns diabetes-induced hyperalgesia. The experiment in a line: Streptozotocin diabetes model, diabetes-induced hyperalgesia to mechanical stimuli. In kind it is in vivo, Sprague-Dawley rats. Particulars: four weeks after streptozotocin 70 mg/kg; intradermal sterile water then 1 µg. The procedure: Persons with uncontrolled or poorly controlled diabetes frequently experience hyperalgesia. The role of PKCε in diabetic neuropathy was examined in a model of diabetes in which male Sprague-Dawley rats receive subcutaneous injection of streptozotocin (70 mg/kg), a pancreatic β-cell toxin. These rats display hyperglycemia and glucosuria within 24 hours after the injection and show decreased nociceptive thresholds in response to mechanical stimuli administered by Ugo Basile analgesymeter in the hind paw after one week (Ahlgren, S.C. et al, J. Neurophysiology, 68, 2077-2085 (1992); Ahlgren, S.C. and Levine, J.D., Neuroscience 52, 1049-1055 (1993)). Four weeks after the streptozotocin injection, each rat received no treatment (n=8) or an intradermal injection of sterile water followed by a intradermal injections of (1) 1 µg bisindolymaleimide, a protein kinase C inhibitor (n=4; labeled "BIM" on Figure 12B), (2) 1 µg εV1-2, a PKCε inhibitory peptide (n=8; labeled "PKCεI" on Figure 12B), or (3) 1 µg S-VεV1-2, a scrambled version of the εV1-2 peptide (n=4; labeled "PCKε1 SCR" on Figure 12B) and were subsequently exposed to mechanical stimuli.

Where [10] appears, read: 1µg at the same time as carrageenan.
[11] abbreviates: 1µM epinephrine with 100µM BIM v. epinephrine alone.

For the molecule `CC[C@]1(O)C[C@H]2CN(CCc3c([nH]c4ccccc34)[C@@](C(=O)OC)(c3cc4c(cc3OC)N(C=O)[C@H]3[C@@](O)(C(=O)OC)[C@H](OC(C)=O)[C@]5(CC)C=CCN6CC[C@]43[C@@H]65)C2)C1` [Vincristine], the “motor deficits (Rotorod analysis)” value in [1] is recorded as “did not show any significant motor deficits”. Further, the “mechanical nociceptive thresholds of vincristine-treated rats” value in data set [2] is “acute dose-dependent decrease in mechanical nociceptive thresholds”.

Turning to `Cc1ccc(N(CC2=NCCN2)c2cccc(O)c2)cc1` [phentolamine], the “effect on basal paw threshold” value in the data set on basal paw threshold was “no effect”. For the same molecule, the “effect on formalin-induced hyperalgesia” value in data set [3] is recorded as “significantly reversed”. For the same molecule, the “effect on ability of rolipram to prolong PGE2-induced hyperalgesia” value in data set [4] is “inhibited”. In the data set on TTX-RINa, the “effect on epinephrine-induced potentiation of TTX-RINa” value is “did not”. For the same molecule, in [5], the “effect on epinephrine-induced hyperalgesia” value is recorded as “did not significantly affect”.

In the case of `CN(C)CCCn1cc(C2=C(c3c[nH]c4ccccc34)C(=O)NC2=O)c2ccccc21` [BIM, bisindolymaleimide I], in [6] (setting [10]), the “effect on acute hyperalgesia normally induced by carrageenan exposure” value was “attenuated” and the “effect on prolonged hyperalgesia on PGE2 72 or more hours after carrageenan exposure” value is given as “attenuated”. The “effect on prolonged PGE2-induced hyperalgesia in carrageenan-sensitized rats” value in data set [6] (1µg several days after the carrageenan injection, then PGE2) is reported as “inhibited”. Moreover, the “effect on isoproterenol-induced hyperalgesia” value in data set [7] is reported as “significantly attenuated”. The “effect on PGE2-induced hyperalgesia” value in [8] is “had no effect”. Moreover, in the data set on TTX-RINa (setting [11]), the “mean peak current increase” value was determined as 32% and the “number of neurons responsive to epinephrine” value is reported as 5 out of 11. In addition, in the data set on TTX-RINa, the “effect on epinephrine-induced potentiation of TTX-RINa” value is given as “significantly decreased”. The “effect on diabetes-induced decrease in nociceptive threshold” value in data set [9] is “markedly reduced”.
